Columns and labels:
Test in all cases: selective drug sensitivity score (sDSS, relative to normal bone marrow) (sDSS (score)); higher = more potent and effective on the cell line relative to normal bone marrow cells
Settings in all cases: 72 h
[1] = system: PEER
[2] = system: ALL-PO
[3] = system: COG-LL-332h
[4] = system: KOPN-8
[5] = system: COG-LL-402h
[6] = system: CCRF-CEM
[7] = system: P12-ICHIKAWA
[8] = system: RPMI-8402
[9] = system: NALM-6
[10] = system: COG-LL-394h
[11] = system: CCRF-HSB2
[12] = system: MN-60
[13] = system: HAL-01
[14] = system: RCH-ACV
[15] = system: MOLT-4
[16] = system: KASUMI-9
[17] = system: COG-LL-317
[18] = system: MHH-CALL-4
[19] = system: KASUMI-10
[20] = system: MOLT-14
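Further: ALL cell lines in 384-well plates, five doses spanning 10,000-fold, each plate scaled between vehicle and 100 µmol/L benzalkonium chloride controls, sDSS an adapted area-under-curve metric.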

Row | Structure (SMILES) | selective drug sensitivity score [1] | selective drug sensitivity score [2] | selective drug sensitivity score [3] | selective drug sensitivity score [4] | selective drug sensitivity score [5] | selective drug sensitivity score [6] | selective drug sensitivity score [7] | selective drug sensitivity score [8] | selective drug sensitivity score [9] | selective drug sensitivity score [10] | selective drug sensitivity score [11] | selective drug sensitivity score [12] | selective drug sensitivity score [13] | selective drug sensitivity score [14] | selective drug sensitivity score [15] | selective drug sensitivity score [16] | selective drug sensitivity score [17] | selective drug sensitivity score [18] | selective drug sensitivity score [19] | selective drug sensitivity score [20]
1 | Nc1ccccc1NC(=O)c1ccc(CNC(=O)OCc2cccnc2)cc1 [Entinostat] (top concentration 10000 nM) | 6.88 | 4.08 | -0.62 | 11.6 | 4.98 | 3.78 | 7.58 | 5.08 | 1.08 | -3.72 | 3.28 | 1.68 | 2.58 | 9.98 | 1.48 | 8.28 | 2.98 | 8.88 | 3.68 | 7.98
2 | C#Cc1cccc(Nc2ncnc3cc(OCCOC)c(OCCOC)cc23)c1 [Erlotinib] (top concentration 10000 nM) | 5.16 | 5.46 | 1.96 | 7.06 | 4.06 | 2.06 | 1.56 | 2.26 | -1.24 | 2.66 | 4.66 | 0.96 | 0.46 | 4.26 | 1.56 | 3.26 | 0.16 | -1.24 | 4.06 | 4.06
3 | O=C(Nc1nc2cccc(-c3ccc(CN4CCS(=O)(=O)CC4)cc3)n2n1)C1CC1 [Filgotinib] (top concentration 10000 nM) | -2.04 | 6.16 | -1.84 | 5.46 | -1.54 | -1.34 | -1.64 | -2.24 | -2.44 | -3.34 | -2.54 | -2.64 | 5.66 | 1.56 | -5.34 | 0.26 | 1.16 | 2.86 | 1.46 | -0.44
4 | C[C@H]1C=C2C(=O)O[C@H]3CC[C@@H](C1)[C@@]23O [Galiellalactone] (top concentration 25000 nM) | 1.66 | -0.34 | 6.06 | 4.16 | 3.76 | 5.86 | 1.86 | 0.06 | 5.16 | -0.74 | 2.76 | 2.46 | 6.06 | 7.76 | -0.44 | 6.76 | 7.36 | -3.84 | 4.56 | 5.26
5 | CN(C)C1CCN(C(=O)c2ccc(NC(=O)Nc3ccc(-c4nc(N5CCOCC5)nc(N5CCOCC5)n4)cc3)cc2)CC1 [Gedatolisib] (top concentration 1000 nM) | 4.06 | 1.06 | 4.96 | 10.1 | 8.56 | 7.26 | 3.16 | 3.66 | 5.16 | 0.56 | 8.86 | 6.26 | -4.54 | 17.5 | 5.46 | 9.36 | 5.06 | 3.66 | 1.36 | -3.24
6 | Nc1ccn([C@@H]2O[C@H](CO)[C@@H](O)C2(F)F)c(=O)n1 [Gemcitabine] (top concentration 1000 nM) | 5.06 | 8.06 | 17.8 | 26.4 | 18.6 | 14.5 | 15.8 | 9.56 | 14.5 | -8.04 | 22 | -0.34 | 20.4 | 18.5 | 10.4 | 16.3 | 20.4 | 12.9 | 16.8 | 14.3
7 | COc1cc2c(cc1-c1c(C)noc1C)ncc1[nH]c(=O)n([C@H](C)c3ccccn3)c12 [I-BET151] (top concentration 10000 nM) | 1.26 | 6.36 | -2.24 | 11.8 | 5.46 | 0.96 | 4.06 | 4.36 | 3.46 | 0.86 | 0.06 | 6.76 | 1.26 | 12.3 | -4.34 | 11.2 | 6.56 | 5.96 | 5.66 | 0.46
8 | O=C1CCc2c(Oc3ccc4c(c3)[C@@H]3[C@H](O4)[C@H]3c3nc4cc(C(F)(F)F)ccc4[nH]3)ccnc2N1 [Lifirafenib (BGB-283)] (top concentration 10000 nM) | 10.7 | 6.98 | 8.18 | 13.1 | 2.38 | 4.18 | 3.18 | 2.28 | 5.58 | 6.88 | 8.88 | 1.48 | 6.48 | 10.3 | 1.38 | 5.58 | 2.28 | 7.58 | 7.98 | 4.58
9 | NC(=O)N1CCC(CC(=O)N2CCC([C@H]3c4ncc(Br)cc4CCc4cc(Cl)cc(Br)c43)CC2)CC1 [Lonafarnib] (top concentration 100000 nM) | 5.94 | 4.64 | 10.1 | 12.8 | 3.64 | 9.74 | 6.74 | 19.2 | 6.24 | 3.04 | 9.14 | 2.24 | 3.44 | 8.64 | 10.5 | 9.14 | 14 | 7.44 | -1.56 | 14.1
10 | NC1(c2ccc(-c3nc4ccn5c(=O)[nH]nc5c4cc3-c3ccccc3)cc2)CCC1 [MK-2206] (top concentration 1000 nM) | -1.64 | 5.46 | 2.86 | 3.46 | 2.76 | 6.36 | 1.66 | 1.96 | 2.76 | -1.64 | 3.26 | -1.64 | 6.96 | 13.2 | 2.76 | 4.36 | 3.56 | 5.76 | -0.44 | -1.64
11 | O=C(Nc1cccc(NC(=O)c2cccc(O)c2O)c1)c1cccc(O)c1O [MST-312] (top concentration 10000 nM) | 9.4 | 5.6 | 13.1 | 15.2 | 8.6 | 7.1 | 6.6 | 5.9 | 9.5 | 1.1 | 12.8 | 9.8 | 7.6 | 0.7 | 9.2 | 5 | 18.2 | 1.8 | 1 | 5.8
12 | CC(=O)O[C@]1(C(C)=O)CC[C@H]2[C@@H]3C=C(C)C4=CC(=O)CC[C@]4(C)[C@H]3CC[C@@]21C [Megestrol_acetate] (top concentration 10000 nM) | 0.32 | 17.9 | -0.58 | 3.02 | -0.38 | -0.28 | 1.82 | 0.52 | 1.72 | 1.62 | 0.62 | -0.58 | 3.32 | 4.32 | 0.02 | 3.92 | -0.58 | 7.52 | -0.58 | 0.22
13 | CO[C@@H]1[C@H](N(C)C(=O)c2ccccc2)C[C@H]2O[C@]1(C)n1c3ccccc3c3c4c(c5c6ccccc6n2c5c31)C(=O)NC4 [Midostaurin] (top concentration 10000 nM) | 4.16 | 14.8 | 6.26 | 12.1 | 6.86 | 7.06 | 9.76 | 3.66 | 7.56 | -3.84 | 11.7 | -1.24 | 3.06 | 16.2 | 8.66 | 11.7 | 8.96 | 3.66 | 13.4 | 11.6
14 | CCCCCCCCCCCCCCCCOP(=O)([O-])OCC[N+](C)(C)C [Miltefosine] (top concentration 100000 nM) | 13.1 | 2.26 | 0.76 | 7.56 | 0.46 | -0.04 | 6.56 | 1.46 | 1.66 | -1.54 | 7.26 | 3.26 | -1.34 | 3.16 | 0.26 | 0.46 | 1.06 | -1.34 | -1.14 | 0.76
15 | Nc1ccccc1NC(=O)c1ccc(CNc2nccc(-c3cccnc3)n2)cc1 [Mocetinostat] (top concentration 10000 nM) | 9.24 | 7.24 | 7.04 | 9.24 | 8.84 | 5.54 | 6.24 | 6.34 | 2.94 | 2.74 | 3.94 | 1.34 | 2.14 | 9.54 | 5.24 | 9.14 | 5.64 | 8.04 | 6.74 | 9.14
16 | CCNC(=O)C[C@@H]1N=C(c2ccc(Cl)cc2)c2cc(OC)ccc2-n2c(C)nnc21 [Molibresib] (top concentration 10000 nM) | -3 | 3.6 | -2.4 | 10.6 | 5.3 | 0.8 | 3 | 1.4 | 3.2 | -2.1 | -0.5 | 6.3 | 2.7 | 7.7 | -4.4 | 9.1 | 3.2 | 6.9 | 5.3 | -2.1
17 | Nc1ncnc2c1c(-c1cccc(OCc3ccccc3)c1)cn2[C@H]1C[C@@H](CN2CCC2)C1 [NVP-AEW541] (top concentration 10000 nM) | 0.38 | 3.98 | -1.52 | -2.62 | -0.72 | -2.42 | -2.72 | -1.32 | -4.02 | 2.48 | -0.62 | -3.22 | 0.58 | 1.18 | -3.22 | -2.72 | -2.32 | 0.08 | 3.58 | -1.62
18 | CN[C@@H](C)C(=O)N[C@H](C(=O)N1CCC[C@H]1c1nc(C(=O)c2ccc(F)cc2)cs1)C1CCCCC1 [NVP-LCL161] (top concentration 25000 nM) | -2.72 | 0.38 | 2.38 | 0.28 | -5.42 | 1.18 | -4.32 | -2.42 | -5.82 | 6.58 | 1.88 | -5.72 | 7.88 | -0.52 | -4.32 | -2.72 | -2.02 | 1.58 | -3.52 | -3.52

From the supplement of paper PMC8967900
